Where two headings read alike, the source gives them in different places.
Key:
[1] = test system: Boophilus Microplus Resistent/SP-Resistent Parkhurst Strain; experiment: Test with Boophilus Microplus Resistent/SP-Resistent Parkhurst Strain; format: in vivo; conditions: 200 μg/animal; injected into the abdomen; adult females which have sucked themselves full
Experimental: Test with Boophilus Microplus Resistent/SP-Resistent Parkhurst Strain
Adult females which have sucked themselves full […]
The test is carried out in 5 replications. I μl of the solutions is injected into the abdomen, and the animals are transferred into dishes and kept in an air-conditioned room. The activity is determined via the inhibition of oviposition. 100% means that no tick has deposited eggs.

[2] = test system: mustard beetle larvae (Phaedon cochleariae); experiment: Phaedon Larvae Test; format: in vivo; conditions: 168 h, 0.1% active compound, after 7 days, dipped cabbage leaves, read-out: kill
Experimental: (§1) Solvent: 7 parts by weight of dimethylformamide
(§2) Emulsifier: 1 part by weight of alkylaryl polyglycol ether
(§3) To produce a suitable preparation of active compound, 1 part by weight of active compound is mixed with the stated amount of solvent and the stated amount of emulsifier, and the concentrate is diluted with water to the desired concentration.
Cabbage leaves (Brassica oleracea) are treated by being dipped into the active compound preparation of the desired concentration and are populated with mustard beetle larvae (Phaedon cochleariae) while the leaves are still moist.
After the desired period of time, the kill in % is determined. 100% means that all the beetle larvae have been killed, 0% means that none of the beetle larvae have been killed.

[3] = test system: caterpillars of the owlet moth Spodoptera frugiperda; experiment: Spodoptera Test; format: in vivo; conditions: 168 h, 0.1% active compound, after 7 days, dipped cabbage leaves, read-out: kill
Experimental: as §1, §2, §3
Cabbage leaves (Brassica oleracea) are treated by being dipped into the active compound preparation of the desired concentration and are populated with caterpillars of the owlet moth Spodoptera frugiperda) while the leaves are still moist.
(§4) After the desired period of time, the kill in % is determined. 100% means that all the caterpillars have been killed, 0% means that none of the caterpillars have been killed.

[4] = test system: larvae of the green rice leaf hopper (Nephotettix cincticeps); experiment: Nephotettix Test; format: in vivo; conditions: 144 h, read-out: kill
Experimental: as §1, §2, §3
Rice seedlings (Oryzae sativa) are treated by being dipped into the active compound preparation of the desired concentration and are populated with larvae of the green rice leaf hopper (Nephotettix cincticeps) while the seedlings are still moist.
After the desired period of time, the kill in % is determined. 100% means that all the leaf hoppers have been killed; 0% means that none of the leaf hoppers have been killed.

[5] = test system: black bean aphid (Aphis fabae); experiment: Myzus Test (Duration of Activity after Spraying); format: in vivo; conditions: 0.1% active compound, dipped bean shoots, time not stated, read-out: kill
Experimental: Myzus Test (Duration of Activity after Spraying)
as §1, §2, §3
Bean shoots (Vicia faba) which are heavily infested by the black bean aphid (Aphis fabae) are treated by being dipped into the active compound preparation of the desired concentration.
After the desired period of time, the kill in % is determined. 100% means that all aphids have been killed, 0% means that none of the aphids have been killed.

[6] = test system: caterpillars of the diamond back moth (Plutella xylostella); experiment: Plutella Test; format: in vivo; conditions: 168 h, 0.1% active compound, after 7 days, dipped cabbage leaves, read-out: kill
Experimental: as §1, §2, §3
Cabbage leaves (Brassica oleracea) are treated by being dipped into the active compound preparation of the desired concentration and are populated with caterpillars of the diamond back moth (Plutella xylostella) while the leaves are still moist.
as §4

[7] = log p: n-octanol/water partition coefficient determined by reverse phase HPLC analysis using H2O/CH3CN; format: physicochemical
From the text: *log p: logarithm to base ten of the noctanol/water partition coefficient
determined by reverse phase HPLC analysis using H2 O/CH3 CN.

[8] = test system: all larval stages of Lucilia cuprina (OP resistent); experiment: Test with Fly Larvae/Development-Inhibitory Action; format: in vivo; conditions: 1000 ppm active compound, on horse meat, larvicidal effect after 48 h
Experimental: Test with Fly Larvae/Development-Inhibitory Action
all larval stages of Lucilia cuprina (OP resistent)
[pupae and adults (without contact with the active
Solvent: 35 parts by weight of ethylene glycol monomethyl ether
35 parts by weight of nonylphenol polyglycol ether
To produce a suitable preparation, 3 parts by weight of the active compound are mixed with 7 parts by weight of the abovementioned solvent-emulsifier mixture, and the resulting emulsion concentrate is diluted with water to the concentration desired in each case.
For each concentration, 30 to 50 larvae are introduced into a test tube which contains horse meat (1 cm^3). 500 μl of the dilution to be tested are pipetted onto this horse meat. The test tubes are placed in plastic beakers whose bottom is covered with sea sand, and kept in an air-conditioned room (26° C.±1.5° C., 70%±10% relative humidity). The activity is examined (larvicidal action) after 24 hours and 48 hours. After emergence of the larvae (about 72 h), the test tubes are removed and perforated plastic lids are fitted onto the beakers. After 1.5 times the development time (hatching of control flies), the hatched flies and the pupae/cocoons are counted.
The activity criterion is the incidence of death in the treated larvae after 48 h (larvicidal effect), or the inhibition of hatching of adults from pupae or the inhibition of pupae formation. The criterion for the in vitro activity of a substance is the inhibition of the development of the […], or a development standstill before the adult stage. 100% larvicidal action means that all the larvae have been killed after 48 hours. 100% development-inhibitory action means that no adult flies have hatched.

Meloidogyne incognita = experiment: Critical Concentration Test/Nematodes; format: in vivo; conditions: 20 ppm active compound in soil; after four weeks; lettuce roots (root galls)
Experimental: Critical Concentration Test/Nematodes
Solvent: 4 parts by weight of acetone
as §2
To produce a suitable preparation of active compound, 1 part by weight of active compound is mixed with the stated amount of solvent, the stated amount of emulsifier is added and the concentrate is diluted with water to the desired concentration.
The active compound preparation is intimately mixed with soil which is heavily infested with the test nematodes. The active compound concentration in the preparation is immaterial, only the amount of active compound per unit volume of soil, which is given in ppm (=mg/l), matters. The treated soil is transferred into pots, lettuce seeds are sown, and the pots are kept at a greenhouse temperature of 25° C.
After four weeks, the lettuce roots are checked for infestation with nematodes (root galls) and the efficacy of the active compound in % is determined. The efficacy is 100% when infestation is avoided completely and 0% when the infestation level is just as high as in the control plants in untreated, but equally infested, soil.

chromatographic logP ([7]; pH 2) | chromatographic logP ([7]; pH 7.5) | Compound | mortality at 0.1 % strength [2] | mortality at 0.1 % strength [3] | mortality at 0.1 % strength [6] | inhibition at 1000 ppm [8] | also measured
– | – | Cc1ccc(-c2noc(CC(F)=C(F)F)n2)cc1 [Example 1, 3-(4-methylphenyl)-5-(2,3,3-trifluoroprop-2-enyl)-1,2,4-oxadiazole] | 100% | ≥ 85% | ≥ 90% | – | activity (inhibition of oviposition) [1]: 100%; mortality at 0.1 % strength [4]: 100%; mortality at 0.1 % strength [5]: 90%
– | – | FC(F)=C(F)Cc1nnc(-c2ccc(Cl)cc2)o1 [Example 2, 2-(4-chlorophenyl)-5-(2,3,3-trifluoroprop-2-enyl)-1,3-4-oxadiazole] | 100% | – | ≥ 90% | – | mortality at 0.1 % strength [4]: 100%; mortality at 0.1 % strength [5]: 80%
– | – | FC(F)=C(F)Cc1nc(CCl)no1 [Example 4] | – | – | – | – | chromatographic logP ([7]; pH not stated): 2.08
3.3 | – | FC(F)=C(F)Cc1nc(-c2ccccc2Cl)no1 [Example 5] | – | – | ≥ 90% | 100% | –
4.72 | – | FC(F)=C(F)Cc1nc(-c2cc(Cl)cc(Cl)c2)no1 [Example 6] | – | – | – | – | –
3.2 | – | FC(F)=C(F)Cc1nc(-c2ccccc2)no1 [Example 7] | 100% | ≥ 85% | ≥ 90% | 100% | –
– | 2.46 | COc1ccc(-c2nnc(CC(F)=C(F)F)o2)cc1 [Example 8] | – | – | ≥ 90% | – | –
– | 1.89 | FC(F)=C(F)Cc1nnc(-c2ccco2)o1 [Example 9] | – | – | – | – | –
– | 2.19 | FC(F)=C(F)Cc1nnc(-c2cccs2)o1 [Example 10] | – | – | – | – | efficacy (Meloidogyne incognita): 100%

Compound | chromatographic logP ([7]; pH 2) | chromatographic logP ([7]; pH 7.5) | mortality at 0.1 % strength [2] | mortality at 0.1 % strength [3] | mortality at 0.1 % strength [6] | inhibition at 1000 ppm [8] | also measured
FC(F)=C(F)Cc1nc(-c2c(Cl)cccc2Cl)no1 [Example 3] | 3.44 | – | – | ≥ 85% | ≥ 90% | 100% | mortality at 0.1 % strength ([4]; 0.1% active compound, after 6 days, dipped rice seedlings): 100%
